How the values were obtained:
phosphodiesterase = test: Inhibition of the degradation of cyclic AMP by phosphodiesterase (spectrophotometry); assay type: biochemical; conditions: rat brain enzyme extract, 25° C., 265 nm
Procedure: Inhibition of the Degredation Reaction of Cyclic AMP by Phosohodiesterase
The enzyme extract necessary for this study is prepared from rat brain.
After decapitation, the brain is removed, weighed and frozen for half an hour at -70° C. The preparation, maintained in ice, is then diluted and homogenized in 50% glycerol containing 50 mmol tris(hydroxymethyl)aminomethane and 50 mmol magnesium sulfate, in the proportion of 5 ml per gram of brain. The preparation is then centrifuged. The supernatent is distributed in aliquots and stored at 4° C.
In the study, the enzyme extract is incubated :n the presence of cyclic AMP (Boehringer® Ref. 102300), alkaline phosphatase (Boehringer® Ref 108138), adenosine deaminase (Boehringer® Ref. 102091) and increasing amounts of the compounds of the invention. The kinetics of the degredation of cyclic AMP is followed by spectrophotometry at 25° C. A mixture devoid of alkaline phosphatase and adenosine deaminase is used as blank. The measurement of the optical density is carried out at 265 nm. The concentration of the compounds of the invention leading to a 50% inhibition of the enzymatic reaction (IC50) is calculated. Two reference substances, diosmine and theoprylline, are studied according to the same methodology.

[1] = system: polymorphonuclear leukocytes; test: Oxygen-containing free radical production by polymorphonuclear leukocytes (chemiluminescence); assay type: cell-based; conditions: Leukocyte; rat polymorphonuclear leukocytes, Zymosan, Luminol; read-out: IC50, inhibition of the chemiluminescence reaction (free radical production)
Description: Evaluation of the Pharmacodynamic Activity with Respect to Oxygen-Containing Free Radicals Produced by Polymorphonuclear Leukocytes The possible pharmacodynamic activity of the compounds of the invention with respect to the production of free radicals by polymorphonuclear leukocytes was investigated in vitro. The cellular model used was rat polymorphonuclear leukocytes. This model is capable of producing free radicals in a manner that can be monitored. The production of free radicals was quantified by measurement of the chemiluminescence, which is proportional to their quantity. Quantities of 2×10^6 polymorphonuclear leukocyte cells, isolated from heparinized rat blood, are mixed with solutions of increasing concentrations of the compounds of the invention (2×10^-4 M to 2×10^-8 M). Appropriate amounts of Hanks' solution, Zymosan® (Sigma 24250) and Luminol® (Merck 82007) are then added successively. The solutions are kept shielded from the light, and transferred rapidly to a liquid scintillation counter. In the "blank" sample, the polymorphonuclear leukocytes are replaced by an equivalent volume of Hanks' solution, and in the "control" sample, the solution of "test compounds" is replaced by a Hanks' solution. The same study was carried out with a reference product: diosmine. The percentage inhibition of free radical production was calculated by the following formula: [formula] Cl control: Maximum chemiluminescence of "control" sample Cl compounds: Maximum chemiluminescence of "test compounds" sample Cl blank: Maximum chemiluminescence of "blank" sample […]

Solubility in water = assay type: physicochemical; conditions: addition salt
[2] = system: Croton Oil-Induced Edema of the Mouse's Ear; test: Croton oil-induced edema of the mouse's ear; assay type: in vivo, CD1 (Charles River) male mice; conditions: single dose, sacrificed six hours after irritation
Procedure: Croton Oil-Induced Edema of the Mouse's Ear This test consists in inflaming the mouse's ears with an irritant solution based on croton oil, and in testing the preventive effect of the test compounds administered per os. The tests were carried out on batches of at least 8 CD1 (Charles River) male mice of average weight 18-20 g. The compounds of the invention were administered by gavage with a tube, in a single dose, on the basis of 0.1 ml of liquid per 10 g of mouse. The mouse was deprived of food, but not of drink, 2 hours before the gavage and until after the irritation. Thirty minutes after the gavage, each mouse was lightly anesthetized with ether. 10 μl of the irritant solution were then deposited by means of an Eppendorf pipette on the cutaneous surface of the pinna of the right ear; the left ear, which was not subjected to any treatment, acted as control. The animal was then replaced in the cage and sacrificed six hours later. The ears were sectioned along the cartilagineous edge and weighed immediately. To assess the activity of the product, the mean increase in weight of the ears of the treated batches (m) is compared by Student's test with that of the untreated control batch (mc).

Row | SMILES | IC50 (phosphodiesterase) [µM] | solubility (Solubility in water) [mg/mL] | other results
1 | COc1ccc(-c2cc(=O)c3c(O)cc(O[C@@H]4O[C@H](CO[C@@H]5O[C@@H](C)[C@H](O)[C@@H](O)[C@H]5O)[C@@H](O)[C@H](O)[C@H]4O)cc3o2)cc1O [DIOSMINE, diosmine, reference compound] | 100 |  | IC50 [1]: 40 µM
2 | CCOC(=O)COc1cc(-c2cc(=O)c3c(O)cc(OCC(=O)N4CCN(Cc5ccc(OC)c(OC)c5OC)CC4)cc3o2)ccc1OC [Example 1 (monophosphate), 7-[2-{4-[(2,3,4-trimethoxyphenyl)methyl]-1-piperazinyl}-2-oxoethoxy-5-hydroxy-4'-methoxy-3'-(2-ethoxy-2-oxoethoxy)flavone monophosphate] |  | 158 | 
3 | CCOC(=O)COc1cc(OCC(=O)N2CCN(Cc3ccc(OC)c(OC)c3OC)CC2)c2c(=O)cc(-c3ccc(OC)c(OCC(=O)OCC)c3)oc2c1.Cl [Example 2 (hydrochloride), 5-[2-{4-[(2,3,4-Trimethoxyphenyl)methyl]-1-piperazinyl}-2-oxoethoxy]-7,3'-bis(2-ethoxy-2-oxoethoxy)-4'-methoxyflavone hydrochloride] |  | 163 | I (percentage inhibition of ear edema) ([2]; 166 mg.kg^-1 per os, p < 0.05): -34%
4 | CCOC(=O)COc1cc(OCC(=O)N2CCN(Cc3ccc(OC)c(OC)c3OC)CC2)c2c(=O)cc(-c3ccc(OC)c(OCC(=O)OCC)c3)oc2c1 [Example 2, 5-[2-{4-[(2,3,4-Trimethoxyphenyl)methyl]-1-piperazinyl}-2-oxoethoxy-]-7,3'-bis(2-ethoxy-2-oxoethoxy)-4'-methoxyflavone] | 20 |  | IC50 [1]: 4 µM
5 | COc1ccc(-c2cc(=O)c3c(O)cc(O[C@@H]4O[C@H](CO[C@@H]5O[C@@H](C)[C@H](O)[C@@H](O)[C@H]5O)[C@@H](O)[C@H](O)[C@H]4O)cc3o2)cc1OCC(=O)N1CCN(Cc2ccc(OC)c(OC)c2OC)CC1 [Example 3 (hemitartrate), 3'-[2-{4-[(2,3,4-Trimethoxyphenyl)methyl]-1-piperazinyl}-2-oxoethoxy]-4'-methoxy-5-hydroxyflavone 7-chamnoglucoside hemitartrate] |  | 200 | I (percentage inhibition of ear edema) ([2]; 200 mg.kg^-1 per os, p < 0.01): -26%
6 | COc1ccc(-c2cc(=O)c3c(O)cc(O[C@@H]4O[C@H](CO[C@@H]5O[C@@H](C)[C@H](O)[C@@H](O)[C@H]5O)[C@@H](O)[C@H](O)[C@H]4O)cc3o2)cc1OCC(=O)N1CCN(Cc2ccc(OC)c(OC)c2OC)CC1 [Example 3, 3'-[2-{4-[(2,3,4-Trimethoxyphenyl)methyl]-1-piperazinyl}-2-oxoethoxy]-4'-methoxy-5-hydroxyflavone 7-chamnoglucoside] | 25 |  | 
7 | COc1ccc(-c2cc(=O)c3c(O)cc(O[C@@H]4O[C@H](CO)[C@@H](O)[C@H](O)[C@H]4O)cc3o2)cc1OCC(=O)N1CCN(Cc2ccc(OC)c(OC)c2OC)CC1 [Example 4 (monophosphate), 3'-[2-{4-[(2,3,4-Trimethoxyphenyl)methyl]-1-piperazinyl}-2-oxoethoxy]-4'-methoxy-5-hydroxyflavone 7β-glucoside monophosphate] |  | 43 | I (percentage inhibition of ear edema) ([2]; 173 mg.kg^-1 per os, p < 0.05): -28%
8 | COc1ccc(-c2cc(=O)c3c(O)cc(O)cc3o2)cc1OCC(=O)N1CCN(Cc2ccc(OC)c(OC)c2OC)CC1 [Example 5 (methanesulfonate), 3'-[2-{4-[(2,3,4-trimethoxyphenyl)methyl]-1-piperazinyl}-2-oxoethoxy]-4'-methoxy-5,7-dihydroxyflavone] |  | 35 | 
9 | CCOC(=O)COc1cc(O)c2c(=O)cc(-c3ccc(OC)c(OCC(=O)N4CCN(Cc5ccc(OC)c(OC)c5OC)CC4)c3)oc2c1 [Example 6 (monophosphate), 3'[2-{4-[(2,3,4-Trimethoxyphenyl)methyl]-1-piperazinyl}-2-oxoethoxy]-4'-methoxy-5-hydroxy-7-(2-ethoxy-2-oxoethyoxy)flavone phosphate] |  | 39.5 | 
10 | CCOC(=O)COc1cc(O)c2c(=O)cc(-c3ccc(OC)c(OCC(=O)N4CCN(Cc5ccc(OC)c(OC)c5OC)CC4)c3)oc2c1 [Example 6, 3'-[2-{4-[(2,3,4-Trimethoxyphenyl)methyl]-1-piperazinyl}-2-oxoethoxy]-4'-methoxy-5-hydroxy-7-(2-ethoxy-2-oxoethoxy)flavone] |  |  | IC50 [1]: 10 µM
11 | COc1ccc(-c2cc(=O)c3c(O)cc(OCC(=O)N4CCN(Cc5ccc(OC)c(OC)c5OC)CC4)cc3o2)cc1OCC(=O)N1CCN(Cc2ccc(OC)c(OC)c2OC)CC1 [Example 7 (biphosphate), 7,3'-Bis[2-{4-[(2,3,4-trimethoxyphenyl)methyl]-1-piperazinyl}-2-oxoethoxy]-5-hydroxy-4'-methoxyflavone biphosphate] |  | 221 | 
12 | COc1ccc(-c2cc(=O)c3c(O)cc(OCC(=O)N4CCN(Cc5ccc(OC)c(OC)c5OC)CC4)cc3o2)cc1OCC(=O)N1CCN(Cc2ccc(OC)c(OC)c2OC)CC1 [Example 7, 7,3'-Bis[2-{4-[(2,3,4-trimethoxyphenyl)methyl]-1-piperazinyl}-2-oxoethoxy]-5-hydroxy-4'-methoxyflavone] | 10 |  | 
13 | COc1ccc(C2CC(=O)c3c(O)cc(OCC(=O)N4CCN(Cc5ccc(OC)c(OC)c5OC)CC4)cc3O2)cc1O.CS(=O)(=O)O (stereo not drawn) [Example 8 (methanesulfonate), 7-[2-{4-[(2,3,4-Trimethoxyphenyl)methyl]-1-piperazinyl}-2-oxoethoxy]-5,3'-dihydroxy-4'-methoxyflavanone methanesulfonate] |  | 1.4 | 
14 | COc1ccc(C2CC(=O)c3c(O)cc(OCC(=O)N4CCN(Cc5ccc(OC)c(OC)c5OC)CC4)cc3O2)cc1O (stereo not drawn) [Example 8, 7-[2-{4-[(2,3,4-Trimethoxyphenyl)methyl]-1-piperazinyl}-2-oxoethoxy]-5,3'-dihydroxy-4'-methoxyflavanone] | 57 |  | IC50 [1]: 15 µM
15 | Cn1c(=O)c2[nH]cnc2n(C)c1=O [THEOPHYLLINE, theophylline, reference compound] | 1000 |  | 

— patent publication US4970301A, “2-(piperazinyl)-2-oxoethylene-substituted flavonoid compounds” (Adir et Cie, priority 1987, dated 1990)
